Assay results from patent US9688653B2, “Ethoxyphenyl thienyl compounds and methods for the treatment of bacterial infections” (Duke University, priority 2013, dated 2017).
Where two headings read alike, the source gives them in different places.

Tests used:
[1] = biological target: panel of 68 receptors (Homo sapiens, UniProt P25929); details: Neuropeptide Y Y1, hum, 10 μM
[2] = biological target: panel of 68 receptors (Homo sapiens, UniProt P25100); details: Adrenergic α1D, hum, 10 μM
[3] = biological target: panel of 68 receptors (Homo sapiens, UniProt P08588); details: Adrenergic β1, hum, 10 μM
[4] = biological target: panel of 68 receptors (Homo sapiens, UniProt P30542); details: Adenosine A1, hum, 10 μM
[5] = biological target: panel of 68 receptors (Homo sapiens, UniProt P49146); details: Neuropeptide Y Y2, hum, 10 μM
[6] = biological target: panel of 68 receptors (Homo sapiens, UniProt P25021); details: Histamine H2, hum, 10 μM
[7] = biological target: panel of 68 receptors (Homo sapiens, UniProt P08913); details: Adrenergic α2A, hum, 10 μM
[8] = biological target: panel of 68 receptors (Homo sapiens, UniProt P21554); details: Cannabinoid CB1, hum, 10 μM
[9] = biological target: panel of 68 receptors (Rattus norvegicus, UniProt P43140); details: Adrenergic α1A, rat, 10 μM
[10] = biological target: panel of 68 receptors (Homo sapiens, UniProt P35367); details: Histamine H1, hum, 10 μM
[11] = biological target: panel of 68 receptors (Homo sapiens, UniProt P41595); details: Serotonin (5-Hydroxytryptamine) 5-HT2B, hum, 10 μM
[12] = biological target: panel of 68 receptors (Homo sapiens, UniProt P02708); details: Nicotinic Acetylcholine α1, Bungarotoxin, hum, 10 μM
[13] = biological target: panel of 68 receptors (Homo sapiens, UniProt P41145); details: Opiate κ(OP2, KOP), hum, 10 μM
[14] = biological target: panel of 68 receptors (Homo sapiens, UniProt Q12809); details: Potassium Channel hERG, hum, 10 μM
[15] = biological target: panel of 68 receptors (Homo sapiens, UniProt P08908); details: Serotonin (5-Hydroxytryptamine) 5-HT1A, hum, 10 μM
[16] = biological target: panel of 68 receptors (Homo sapiens, UniProt P21728); details: Dopamine D1, hum, 10 μM
[17] = biological target: panel of 68 receptors (Homo sapiens, UniProt P20309); details: Muscarinic M3, hum, 10 μM
[18] = biological target: panel of 68 receptors (Rattus norvegicus, UniProt P15823); details: Adrenergic α1B, rat, 10 μM
[19] = biological target: panel of 68 receptors (Rattus norvegicus, UniProt Q02294); details: Calcium Channel N-Type, rat, 10 μM
[20] = biological target: panel of 68 receptors (Rattus norvegicus, UniProt P15207); details: Androgen (Testosterone) AR, rat, 10 μM
[21] = biological target: panel of 68 receptors (Homo sapiens, UniProt P30411); details: Bradykinin B2, hum, 10 μM
[22] = biological target: panel of 68 receptors (Homo sapiens, UniProt P46098); details: Serotonin (5-Hydroxytryptamine) 5-HT3, hum, 10 μM
[23] = biological target: panel of 68 receptors (Homo sapiens, UniProt P41143); details: Opiate δ1, (OP1, DOP), hum, 10 μM
[24] = biological target: panel of 68 receptors (Homo sapiens, UniProt Q01959); details: Transporter, Dopamine (DAT), hum, 10 μM
[25] = tested on: capsule genes of UPEC; assay: Capsule gene transcript level after probe treatment; format: cell-based, Escherichia coli; details: UPEC treated with the probe
[26] = PAMPA permeability; format: in vitro ADME; details: read-out: PAMPA Pe

panel of 68 receptors (Homo sapiens, UniProt P35367), sequence (P35367 whole entry): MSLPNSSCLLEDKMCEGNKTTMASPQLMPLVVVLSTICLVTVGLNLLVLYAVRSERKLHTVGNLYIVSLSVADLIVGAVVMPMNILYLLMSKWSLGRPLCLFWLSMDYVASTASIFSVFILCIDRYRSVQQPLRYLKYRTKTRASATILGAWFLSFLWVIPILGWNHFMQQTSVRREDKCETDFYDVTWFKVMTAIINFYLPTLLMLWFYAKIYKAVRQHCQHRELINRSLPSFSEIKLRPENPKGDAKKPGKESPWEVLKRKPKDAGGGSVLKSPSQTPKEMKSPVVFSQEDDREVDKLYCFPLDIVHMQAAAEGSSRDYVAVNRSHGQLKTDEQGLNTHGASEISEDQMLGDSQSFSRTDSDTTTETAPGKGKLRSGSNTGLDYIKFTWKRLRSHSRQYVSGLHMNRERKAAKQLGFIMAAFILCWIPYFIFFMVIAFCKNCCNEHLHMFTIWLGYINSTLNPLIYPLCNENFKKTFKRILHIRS
panel of 68 receptors (Homo sapiens, UniProt P21554), sequence (P21554 whole entry): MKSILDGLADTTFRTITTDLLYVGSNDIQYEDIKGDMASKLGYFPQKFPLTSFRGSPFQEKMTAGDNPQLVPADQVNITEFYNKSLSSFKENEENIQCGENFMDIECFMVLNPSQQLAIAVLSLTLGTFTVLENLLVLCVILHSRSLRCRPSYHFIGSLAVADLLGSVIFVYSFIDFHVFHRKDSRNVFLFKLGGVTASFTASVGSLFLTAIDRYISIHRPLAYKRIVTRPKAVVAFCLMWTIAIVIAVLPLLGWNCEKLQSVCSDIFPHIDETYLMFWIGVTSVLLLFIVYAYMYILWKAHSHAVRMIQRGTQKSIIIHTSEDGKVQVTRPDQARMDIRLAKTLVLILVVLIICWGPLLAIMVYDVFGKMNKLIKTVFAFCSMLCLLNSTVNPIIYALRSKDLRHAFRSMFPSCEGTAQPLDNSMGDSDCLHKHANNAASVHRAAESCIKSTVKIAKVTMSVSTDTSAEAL
panel of 68 receptors (Homo sapiens, UniProt P30411), sequence (P30411 whole entry): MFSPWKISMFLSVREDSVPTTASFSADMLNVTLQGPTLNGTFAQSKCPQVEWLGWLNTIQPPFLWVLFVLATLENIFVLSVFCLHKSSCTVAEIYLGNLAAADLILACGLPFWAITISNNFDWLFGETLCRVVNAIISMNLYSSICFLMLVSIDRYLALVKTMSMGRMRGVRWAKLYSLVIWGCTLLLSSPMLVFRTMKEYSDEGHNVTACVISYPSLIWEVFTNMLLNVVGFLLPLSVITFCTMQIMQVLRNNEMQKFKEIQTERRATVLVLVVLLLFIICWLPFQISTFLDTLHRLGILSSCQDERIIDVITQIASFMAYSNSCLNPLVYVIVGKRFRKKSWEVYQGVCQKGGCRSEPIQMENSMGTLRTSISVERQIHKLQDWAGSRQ
panel of 68 receptors (Homo sapiens, UniProt P08588), sequence (P08588 whole entry): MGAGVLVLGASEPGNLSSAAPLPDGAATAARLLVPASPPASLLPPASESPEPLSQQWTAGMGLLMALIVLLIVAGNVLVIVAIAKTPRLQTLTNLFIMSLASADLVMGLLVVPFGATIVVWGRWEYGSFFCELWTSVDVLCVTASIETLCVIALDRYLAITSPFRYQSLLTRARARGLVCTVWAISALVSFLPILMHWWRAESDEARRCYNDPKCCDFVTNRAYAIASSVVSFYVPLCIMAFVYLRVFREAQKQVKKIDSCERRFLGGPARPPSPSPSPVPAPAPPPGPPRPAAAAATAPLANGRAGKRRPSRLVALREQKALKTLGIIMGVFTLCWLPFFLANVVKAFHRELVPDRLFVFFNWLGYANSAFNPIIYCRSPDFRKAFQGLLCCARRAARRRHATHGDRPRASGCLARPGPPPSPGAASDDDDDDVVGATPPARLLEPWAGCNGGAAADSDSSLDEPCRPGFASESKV
panel of 68 receptors (Rattus norvegicus, UniProt P43140), sequence (P43140 whole entry): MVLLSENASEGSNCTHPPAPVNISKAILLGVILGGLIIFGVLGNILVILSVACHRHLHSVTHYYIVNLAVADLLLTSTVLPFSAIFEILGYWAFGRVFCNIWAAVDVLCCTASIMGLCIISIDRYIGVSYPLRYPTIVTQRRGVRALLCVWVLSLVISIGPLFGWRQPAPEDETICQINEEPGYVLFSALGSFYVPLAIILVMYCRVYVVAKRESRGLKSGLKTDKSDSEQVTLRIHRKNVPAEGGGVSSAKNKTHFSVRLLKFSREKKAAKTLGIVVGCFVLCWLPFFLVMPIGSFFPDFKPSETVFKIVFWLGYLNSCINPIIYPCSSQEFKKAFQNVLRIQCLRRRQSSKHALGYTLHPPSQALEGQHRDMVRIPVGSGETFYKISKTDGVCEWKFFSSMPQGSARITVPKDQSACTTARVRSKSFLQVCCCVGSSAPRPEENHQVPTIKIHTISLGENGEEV
panel of 68 receptors (Rattus norvegicus, UniProt Q02294), sequence (Q02294 whole entry): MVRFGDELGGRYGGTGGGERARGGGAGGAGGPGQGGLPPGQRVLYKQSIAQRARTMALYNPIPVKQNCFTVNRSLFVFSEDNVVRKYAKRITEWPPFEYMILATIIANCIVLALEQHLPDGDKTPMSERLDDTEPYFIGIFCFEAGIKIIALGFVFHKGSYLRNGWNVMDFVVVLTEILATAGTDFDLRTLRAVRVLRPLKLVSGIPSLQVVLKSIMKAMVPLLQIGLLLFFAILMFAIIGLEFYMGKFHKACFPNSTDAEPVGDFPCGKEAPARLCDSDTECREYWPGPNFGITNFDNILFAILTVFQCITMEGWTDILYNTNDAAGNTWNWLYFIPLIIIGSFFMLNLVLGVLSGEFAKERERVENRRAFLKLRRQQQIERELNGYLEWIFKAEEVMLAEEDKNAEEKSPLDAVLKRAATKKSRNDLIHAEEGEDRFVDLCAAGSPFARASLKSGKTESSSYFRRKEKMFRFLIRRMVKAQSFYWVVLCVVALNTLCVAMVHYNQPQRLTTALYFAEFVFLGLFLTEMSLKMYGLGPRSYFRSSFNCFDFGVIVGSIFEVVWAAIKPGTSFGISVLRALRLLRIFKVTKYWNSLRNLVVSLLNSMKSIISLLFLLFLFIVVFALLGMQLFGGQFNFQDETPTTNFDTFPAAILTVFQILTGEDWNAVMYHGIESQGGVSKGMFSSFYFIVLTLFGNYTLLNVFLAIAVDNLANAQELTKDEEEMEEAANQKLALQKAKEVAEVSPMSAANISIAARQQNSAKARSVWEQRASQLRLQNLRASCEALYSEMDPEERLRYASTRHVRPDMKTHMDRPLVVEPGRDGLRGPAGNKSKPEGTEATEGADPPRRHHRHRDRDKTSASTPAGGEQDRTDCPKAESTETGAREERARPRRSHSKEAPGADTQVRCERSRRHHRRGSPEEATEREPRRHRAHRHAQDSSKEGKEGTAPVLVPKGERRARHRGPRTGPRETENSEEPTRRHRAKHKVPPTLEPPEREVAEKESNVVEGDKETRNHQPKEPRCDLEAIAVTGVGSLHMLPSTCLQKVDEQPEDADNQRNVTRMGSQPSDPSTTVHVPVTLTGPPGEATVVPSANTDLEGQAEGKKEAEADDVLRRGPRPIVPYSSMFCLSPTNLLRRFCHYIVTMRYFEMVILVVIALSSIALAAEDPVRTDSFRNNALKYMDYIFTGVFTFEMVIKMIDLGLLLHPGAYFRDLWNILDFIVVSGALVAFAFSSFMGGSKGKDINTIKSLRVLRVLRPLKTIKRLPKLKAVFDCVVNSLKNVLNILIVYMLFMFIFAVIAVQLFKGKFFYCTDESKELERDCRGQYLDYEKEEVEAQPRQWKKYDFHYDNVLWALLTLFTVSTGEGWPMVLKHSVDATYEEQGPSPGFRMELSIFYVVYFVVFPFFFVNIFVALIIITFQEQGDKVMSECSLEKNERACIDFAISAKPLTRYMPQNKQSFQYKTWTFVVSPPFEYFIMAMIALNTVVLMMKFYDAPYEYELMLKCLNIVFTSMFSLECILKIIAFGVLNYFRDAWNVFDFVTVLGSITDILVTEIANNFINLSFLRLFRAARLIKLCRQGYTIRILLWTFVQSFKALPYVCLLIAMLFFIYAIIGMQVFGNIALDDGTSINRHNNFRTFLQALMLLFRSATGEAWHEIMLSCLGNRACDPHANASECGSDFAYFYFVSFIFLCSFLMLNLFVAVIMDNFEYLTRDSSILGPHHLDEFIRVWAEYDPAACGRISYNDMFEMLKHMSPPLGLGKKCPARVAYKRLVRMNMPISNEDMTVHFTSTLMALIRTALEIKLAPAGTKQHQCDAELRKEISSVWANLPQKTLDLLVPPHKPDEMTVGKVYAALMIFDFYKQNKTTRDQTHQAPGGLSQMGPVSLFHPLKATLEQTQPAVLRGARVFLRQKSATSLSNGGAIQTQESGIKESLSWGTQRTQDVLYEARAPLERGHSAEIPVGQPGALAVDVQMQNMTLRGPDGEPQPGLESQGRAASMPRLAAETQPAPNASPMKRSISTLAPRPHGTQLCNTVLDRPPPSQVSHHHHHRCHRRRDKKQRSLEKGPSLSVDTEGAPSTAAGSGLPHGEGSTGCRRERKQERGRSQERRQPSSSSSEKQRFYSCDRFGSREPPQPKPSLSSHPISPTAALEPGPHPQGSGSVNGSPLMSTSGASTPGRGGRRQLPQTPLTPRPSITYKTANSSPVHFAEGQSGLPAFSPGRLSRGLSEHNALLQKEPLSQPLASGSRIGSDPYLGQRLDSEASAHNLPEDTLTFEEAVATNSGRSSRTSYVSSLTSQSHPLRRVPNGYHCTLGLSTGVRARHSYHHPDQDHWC
panel of 68 receptors (Homo sapiens, UniProt P41145), sequence (P41145 whole entry): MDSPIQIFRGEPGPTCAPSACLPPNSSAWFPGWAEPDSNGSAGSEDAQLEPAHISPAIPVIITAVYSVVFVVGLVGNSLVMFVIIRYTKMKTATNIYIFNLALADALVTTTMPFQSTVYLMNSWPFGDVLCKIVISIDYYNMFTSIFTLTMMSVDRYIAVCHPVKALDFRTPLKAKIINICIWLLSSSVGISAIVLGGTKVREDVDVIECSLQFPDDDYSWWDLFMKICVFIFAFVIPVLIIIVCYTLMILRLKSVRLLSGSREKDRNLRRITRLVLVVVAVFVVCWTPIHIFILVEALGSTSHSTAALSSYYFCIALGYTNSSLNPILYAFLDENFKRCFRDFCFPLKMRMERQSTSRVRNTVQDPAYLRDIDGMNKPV

CCOc1ccc(-c2cc(NC(=O)c3c(F)cccc3F)c(C(=O)O)s2)cc1 [KUC107784N-02]
% Inh. [1]: 5% | % Inh. [2]: 2% | % Inh. [3]: 2% | % Inh. [4]: 28% | % Inh. [5]: −3% | % Inh. [6]: 2% | % Inh. [7]: −1% | % Inh. [8]: 13% | % Inh. [9]: 16% | % Inh. [10]: 2% | % Inh. [11]: 11% | % Inh. [12]: 8% | % Inh. [13]: 14% | % Inh. [14]: −11% | % Inh. [15]: 4% | % Inh. [16]: 5% | % Inh. [17]: 14% | % Inh. [18]: 0% | % Inh. [19]: −16% | % Inh. [20]: −5% | % Inh. [21]: 6% | % Inh. [22]: −11% | % Inh. [23]: 0% | % Inh. [24]: 8%

CCOc1ccc(-c2cc(NC(=O)c3c(F)cccc3F)c(C(=O)O)s2)cc1 [ML317, 3-(2,6-difluorobenzamido)-5-(4-ethoxyphenyl)thiophene-2-carboxylic acid]
Transcript for the capsule genes from each of the two major promoters [25]: significantly reduced transcript | Papp ([26]; Donor pH 5.0, Acceptor pH 7.4, RT): 14 ×10⁻⁶ cm/s | Papp ([26]; Donor pH 6.2, Acceptor pH 7.4, RT): 209 ×10⁻⁶ cm/s | Papp ([26]; pH 7.4, Donor pH 7.4, Acceptor pH 7.4, RT): 52 ×10⁻⁶ cm/s
